# Measured values reported in the RepoRT retention time repository.
# Experiment: RP, Waters ACQUITY UPLC BEH C18, 50 × 2.1 mm, 1.7 µm, 40 °C, 0.6 mL/min, estimated dead time 0.18 min; A: water + 0.1% formic acid, pH 3; B: acetonitrile + 0.1% formic acid, pH 3; gradient (min/%B) 0/5 7/100 8/100
# Conditions: stereoisomer not certain
row,LC retention time [min],SMILES
1,3.02,C=C1CCC(C(C)C)=CC2C1CCC2(C)O (stereo not drawn)
2,1.05,COc1cc2c(cc1O)C(Cc1ccc(O)cc1)NCC2 (stereo not drawn)
3,5.54,CC1(C)CCC2(C(=O)O)CC=C3C(C)(CCC4C3(C)CCC3C(C)(C)C(OC(=O)c5ccc(O)cc5)C(OC(=O)c5ccc(O)cc5)CC43C)C2C1 (stereo not drawn)
4,1.09,COC1=CC(=O)C2(c3cc(=O)c4c(O)cc(O)cc4o3)C(CC=C(C)C2C[C@@]2(O)C(C)(O)CC[C@H]3C(C)(C)C[C@H](O)C[C@@]32C)C1=O (stereo partly drawn)
5,1.83,COc1cc(CC(COC(C)=O)C(COC(=O)/C=C/c2ccc(O)c(O)c2)Cc2ccc(O)c(OC)c2)ccc1O (stereo not drawn)
6,2.6,CC12CCCc3coc(c31)C(=O)c1cc3c(cc12)C(=O)C=CC3=O (stereo not drawn)
7,3.08,C=C(CO)C(=O)OC1CC(=C)C2CC(=O)C(C)C2C2OC(=O)C(=C)C12 (stereo not drawn)
8,1.85,C=C1C(=O)C23C(O)CC4C(C)(C)CCCC4(CO)C2C(O)CC1C3O (stereo not drawn)

# More lines, now with the values behind:
row,SMILES,LC retention time [min]
1,C/C=C1\CN2CCc3c([nH]c4ccccc34)[C@@H]2C[C@@H]1/C(=C\OC)C(=O)OC,2.41
2,CCCC(CC(=O)O)C1=C2OC(=O)C(C(=O)CC(C)C)=C(O)C2(CC=C(C)C)CC(CC=C(C)C)C1(C)C (stereo not drawn),6.51
3,C/C(=C\CC/C=C(\C)CC/C=C(\C)CCC(O)C(C)(C)O)CC/C=C(\C)CCC(O)C(C)(C)O (stereo not drawn),5.34
4,CC(C)(O)/C=C/C(=O)[C@](C)(O)[C@H]1[C@H](O)C[C@@]2(C)[C@@H]3CC=C4[C@@H](C[C@H](O)C(=O)C4(C)C)[C@]3(C)C(=O)C[C@]12C,2.77
5,CC[C@H]1NC2C[C@@]3(C(=O)N(OC)c4cc(OC)ccc43)C3CC1C2CO3 (stereo partly drawn),1.95
6,CCCCCCCCCCCCO[C@@H]1O[C@@H](C)[C@H](O[C@@H]2O[C@@H](C)[C@H](OC(C)=O)[C@@H](O[C@@H]3O[C@@H](C)[C@H](OC(C)=O)[C@@H](O[C@@H]4O[C@@H](C)[C@H](OC(C)=O)[C@@H](OC(C)=O)[C@H]4O)[C@H]3OC(C)=O)[C@H]2O)[C@@H](O)[C@H]1O,6.09
7,COc1cc2c(cc1OC)-c1c3c(cc4c1C(C2)N(C)CC4)OCO3 (stereo not drawn),1.84
8,CC[C@]12C=CCN3CC[C@]4(C(=C(C(=O)OC)C1)Nc1ccccc14)C32 (stereo partly drawn),2.17
9,C/C=C/C(=O)CC1C(=O)C=CC1(CCCCCCCC(=O)O)OC(C)=O (stereo not drawn),2.74
10,CC(C)(O)/C=C/C(=O)[C@](C)(O)[C@H]1[C@H](O)C[C@@]2(C)C3CC=C4C(C=C(O)C(=O)C4(C)C)[C@]3(C)C(=O)C[C@]12C (stereo partly drawn),3
